Values quoted from earlier work as cited in article PMC12901815 (Environmental Analysis, Health and Toxicology, 2025).

Conditions: male Alderley Park rats, oral administration; cited from earlier work

Substance: polyaminopropylbiguanide [PHMB]
- tissue distribution of radioactivity: the highest radioactivity occurred in adipose tissue, followed by kidneys and liver, without detectable brain accumulation
